The values that follow come from ChEMBL document CHEMBL1144728, “Pyrazolo-pyrimidines: a novel heterocyclic scaffold for potent and selective p38 alpha inhibitors” (Bioorg Med Chem Lett, 2008).

Data set [1] concerns Liver microsomes. The data set can be described thus: Metabolic stability in human liver microsomes assessed as metabolic rate per mg of protein. It counts as ADME, Microsome. A general note: Liver microsomes are vesicles of endoplasmic reticulum, rich in cytochrome P450 enzymes.
Data set [2] has as its system Liver microsomes. The data set can be described thus: Metabolic stability in rat liver microsomes assessed as metabolic rate per mg of protein. It counts as ADME, Microsome.
Data set [3] can be described thus: Oral bioavailability in mouse at 10 mg/kg. To be noted: in vivo. It counts as ADME, organism-based.
A short description of data set [4]: Clearance in mouse at 10 mg/kg, po. Conditions: in vivo. More on the design: dose 10 mg/kg, route oral. It counts as ADME, organism-based.
For the next data set, the system named is Mus musculus. The data set can be described thus: Volume of distribution in mouse at 10 mg/kg, po. It counts as ADME, organism-based. More on the design: dose 10 mg/kg, route oral. To be noted: in vivo.
Data set [5] can be described thus: Terminal half life in mouse at 10 mg/kg, po. It counts as ADME, organism-based. More on the design: dose 10 mg/kg, route oral. Conditions: in vivo.

As to `Cc1ccc(C(=O)Nc2ccon2)cc1Nc1ncnc2c1cnn2-c1ccccc1`, the Stability in the data set on Liver microsomes [1] was found to be 0 nmol/min; in the data set with Liver microsomes [2], 0.005 nmol/min/mg. The bioavailability (in general, the share of a dose that reaches the circulation, judged against a reference dose that is usually intravenous) in data set [3] is 60%. Moreover, the CL/F – broadly, clearance divided by bioavailability, as obtained after extravascular dosing – in data set [4] was 5 mL/min/kg. Besides, the Vd in the data set with Mus musculus was 1.3 L/kg. Also, in data set [5], the half-life (as a rule, the time needed for the level to fall by half in the phase considered) was 246 min.
